Measurements published in patent US6518287B2, “Substituted imidazoles as dual histamine H1 and H3 agonists or antagonists” (Schering Corporation, priority 2000, dated 2003).

Assays:
H3 receptors = target: T1, H3 receptors (Cavia porcellus, UniProt Q9JI35); assay: H3-Receptor Binding Assay (guinea pig brain membranes); conditions: HCl salt of the indicated compound, 3 nM [3H]R-α-methyl histamine or [3H]Nα-methyl histamine, read-out: H3 Ave Ki
T1 construct: The source of the H3 receptors in this experiment was guinea pig brain; from tissue; host or cells: guinea pig brain membranes
Description: General Procedure for H3-Receptor Binding Assay
The source of the H3 receptors in this experiment was guinea pig brain. The animals weighed 400-600 g. The brain tissue was homogenized with a solution of 50 mM Tris, pH 7.5. The final concentration of tissue in the homogenization buffer was 10% w/v. The homogenates were centrifuged at 1,000×g for 10 min. in order to remove clumps of tissue and debris. The resulting supernatants were then centrifuged at 50,000×g for 20 min. in order to sediment the membranes, which were next washed three times in homogenization buffer (50,000×g for 20 min. each). The membranes were frozen and stored at −70° C. until needed.
All compounds to be tested were dissolved in DMSO and then diluted into the binding buffer (50 mM Tris, pH 7.5) such that the final concentration was 2 μg/ml with 0.1% DMSO. Membranes were then added (400 μg of protein) to the reaction tubes. The reaction was started by the addition of 3 nM [^3H]R-α-methyl histamine (8.8 Ci/mmol) or 3 nM [^3H]N^α-methyl histamine (80 Ci/mmol) and continued under incubation at 30° C. for 30 min. Bound ligand was separated from unbound ligand by filtration, and the amount of radioactive ligand bound to the membranes was quantitated by liquid scintillation spectrometry.

Histamine H1 receptor = target: T2, Histamine H1 receptor (Rattus norvegicus, UniProt P31390); assay: H1-Receptor Binding Assay (rat brain membranes, [3H]pyrilamine); conditions: HCl salt of the indicated compound, male Sprague-Dawley rat brain membranes, Cheng-Prusoff, read-out: H1 Ave Ki
T2 construct: The tissue source was male Sprague-Dawley rat brain; tissue Rockland Corporation, Gilbertsville, Pa; host or cells: male Sprague-Dawley rat brain membranes
Text: General Procedure for H1-Receptor Binding Assay
The procedure used was based on that disclosed in V. T. Tran, R. S. L. Chang, and S. hr. Snyder, “Histamine H1 receptors identified in mammalian brain membranes with [H-3]mepyramine”, Proc. Natl. Acad. Sci. U.S.A 75 (1978) 6290-6294.
I. Tissue Preparation Protocol for Histamine H1 Receptor Binding Assay
1. The tissue source was male Sprague-Dawley rat brain. These were purchased stripped and frozen (available from Rockland Corporation, Gilbertsville, Pa.). The buffer used was ice-cold 50 mM Tris-HCl, pH 7.5. (The pH was determined at 25° C.)
2. The brains were spread out on plastic wrap on the benchtop and allowed to thaw for 10-15 min. After this, everything was kept ice-cold.
3. Two brains were put in each 50 mL round bottom centrifuge tube and 25 mL of buffer was added. Then they were broken up with a Polytron (from Brinkmann Instruments, Westbury, N.Y.) equipped with a PT-10 tip at setting 6 for 30 sec.
4. The volume in the tube was brought up to 45 mL and mixed and the particulate material was centrifuged at 1000×g (3000 rpm, SS-34 rotor) for 10 min to remove nuclei and unbroken cells.
5. Pellets were discarded and the supernatants were centrifuged 10 min at 50,000×g (20,000 rpm, SS-34 rotor).
6. The high-speed pellets were resuspended in a volume of Tris buffer equal to the original (4 mL), the contents of all tubes were pooled, and a sample was taken for BCA protein assay. The material was aliquotted, 45 mL per round-bottom tube, and the resuspension was recentrifuged. The yield of protein was approximately 20 mg/brain, so there was about 40 mg of protein per tube.
7. Pellets were frozen at −80° C.
II. H1 Histamine Receptor Binding Assay
1. FDCL and comparative compounds for assay were independently solubilized at 1 mg/ml DMSO by vortexing, or if necessary by sonication. The first dilution, 100-fold, was made in 50 mM Tris-HCl, pH 7.5, at room temperature. The three or four subsequent ten-fold serial dilutions were made in 1% DMSO/50 mM Tris-HCl, pH 7.5. Drug solutions and assay plates were kept at room temperature during the course of the assay set up.
2. Test compounds were assayed at four or five concentrations: 1, 0.1, 0.01, 0.001, and 0.0001 μg/ml. Twenty μl of drug solution was pipeted into each of three wells.
3. [^3H]Pyrilamine was diluted approximately 2000-fold with ice-cold […] Tris-HCl, pH 7.5 (to a working concentration of 20-25 nM), and put on ice.
4. A frozen tissue pellet was thawed in a 25° C. water bath, resuspended in 50 mM Tris-HCl, pH 7.5, at 1.7-2 mg/ml by brief break-up on the Polytron, and put on ice.
5. Twenty μl of diluted [^3H]pyrilamine was added to each well.
6. One hundred fifty μl of tissue suspension was added to each well.
7. The top of the plate was covered and it was placed in a 25° C. shaking water bath (about 60 oscillations/min) for 30 min.
8. Samples were filtered on a Tomtec Mach 2 harvester (available from Tomtec Corporation, Orange, Conn.) through a GF/B filter mat (from Wallac, Inc., Gaithersburg, Md.) presoaked in 0.3% polyethylenimine. Each sample was thrice washed with ice-cold 50 mM Tris-HCl, pH 7.5 dried 20 sec on the Tomtec, and dried 3-4 min in a microwave oven on a paper towel. The filter was impregnated with MELTILEX brand wax scintillant (from Wallac Corporation) and counted on a Betaplate scintillation counter (from Wallac Corporation).
9. Specific binding was determined as the difference between total and nonspecific binding. The percent inhibition in the presence of inhibitor or standard was determined using the formula:
[1-(sample binding-nonspecific binding)/specific binding]×100
For compounds that inhibit more than 50% at 1 μg/ml, an IC50 value was interpolated from proximate concentrations. […]

T1 sequence (Q9JI35 whole entry): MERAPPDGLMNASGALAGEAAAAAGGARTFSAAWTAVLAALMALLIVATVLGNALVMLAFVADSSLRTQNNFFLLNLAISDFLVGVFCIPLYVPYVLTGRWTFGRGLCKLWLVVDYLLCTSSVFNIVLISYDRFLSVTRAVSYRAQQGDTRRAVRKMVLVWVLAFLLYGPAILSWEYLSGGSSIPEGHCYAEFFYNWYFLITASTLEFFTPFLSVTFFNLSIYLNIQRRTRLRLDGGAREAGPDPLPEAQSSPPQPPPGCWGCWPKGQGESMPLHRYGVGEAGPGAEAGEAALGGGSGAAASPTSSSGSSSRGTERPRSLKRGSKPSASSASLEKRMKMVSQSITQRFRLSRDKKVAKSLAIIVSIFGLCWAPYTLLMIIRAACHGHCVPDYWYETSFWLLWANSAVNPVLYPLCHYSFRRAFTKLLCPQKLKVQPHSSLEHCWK
T2 sequence (P31390 whole entry): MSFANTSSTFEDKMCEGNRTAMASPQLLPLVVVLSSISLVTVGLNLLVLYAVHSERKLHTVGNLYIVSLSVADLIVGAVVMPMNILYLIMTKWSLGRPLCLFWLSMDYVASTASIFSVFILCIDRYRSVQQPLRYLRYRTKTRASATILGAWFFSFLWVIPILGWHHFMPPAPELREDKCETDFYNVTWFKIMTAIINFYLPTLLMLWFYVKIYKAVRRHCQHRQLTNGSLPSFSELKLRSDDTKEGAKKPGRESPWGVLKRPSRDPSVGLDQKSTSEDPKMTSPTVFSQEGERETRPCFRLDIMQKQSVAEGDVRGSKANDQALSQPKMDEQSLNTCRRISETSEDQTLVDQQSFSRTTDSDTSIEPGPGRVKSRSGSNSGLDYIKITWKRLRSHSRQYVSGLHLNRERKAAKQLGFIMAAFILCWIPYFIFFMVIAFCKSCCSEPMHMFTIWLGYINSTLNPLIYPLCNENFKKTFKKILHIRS

| Ki (H3 receptors) [nM] | Ki (Histamine H1 receptor) [nM] | SMILES |
| --- | --- | --- |
| 29 | 201 | N=C(CCCc1c[nH]cn1)NCCC(c1ccc(Cl)cc1)c1ccccn1 (stereo not shown) |
| 8 | – | N=C(CC(c1ccc(Cl)cc1)c1ccccn1)NCCc1c[nH]cn1 (stereo not shown) |
| 16 | – | O=C(CC(c1ccc(Cl)cc1)c1ccccn1)NCCc1c[nH]cn1 (stereo not shown) |
| 0.8 | – | O=C(CC(c1ccc(Cl)cc1)c1ccccn1)NCCCCc1c[nH]cn1 (stereo not shown) |
| 1 | – | CN(CCc1c[nH]cn1)C(=O)CC(c1ccc(Cl)cc1)c1ccccn1 (stereo not shown) |
| 56 | 600 | Clc1ccc(C(CCNCCc2c[nH]cn2)c2ccccn2)cc1 (stereo not shown) |
| 6.5 | – | CN(CCCCc1c[nH]cn1)C(=O)CC(c1ccc(Cl)cc1)c1ccccn1 (stereo not shown) |
| 510 | – | O=C(CCc1c[nH]cn1)NCCC(c1ccc(Cl)cc1)c1ccccn1 (stereo not shown) |
| 260 | 1000 | CN(CCC(c1ccc(Cl)cc1)c1ccccn1)C(=O)CCc1c[nH]cn1 (stereo not shown) |
| 240 | – | Clc1ccc(C(CCNCCCc2c[nH]cn2)c2ccccn2)cc1 (stereo not shown) |
| 10 | 254 | Clc1ccc(C(CCNCCCCc2c[nH]cn2)c2ccccn2)cc1 (stereo not shown) |
| 120 | 10 | CN(CCCc1c[nH]cn1)CCC(c1ccc(Cl)cc1)c1ccccn1 (stereo not shown) |
| 23 | 83.5 | Clc1ccc(C(CCN(CCCCc2c[nH]cn2)CCCCc2c[nH]cn2)c2ccccn2)cc1 (stereo not shown) |
| 6 | – | Clc1ccc(C(NCCCCc2c[nH]cn2)c2ccccc2)cc1 (stereo not shown) |
| 15 | 7 | CN(CCCCc1c[nH]cn1)CCC(c1ccc(Cl)cc1)c1ccccn1 (stereo not shown) |
| 160 | 120 | C[N+](C)(CCCCc1c[nH]cn1)CCC(c1ccc(Cl)cc1)c1ccccn1 (stereo not shown) |
| 2 | – | Clc1ccc(C(NCCCCc2c[nH]cn2)c2ccc(Cl)cc2)cc1 |
| 36 | – | O=C(CC(c1ccccc1)c1ccccc1)NCCCCc1c[nH]cn1 |
| 33.5 | – | O=C(NCCCCc1c[nH]cn1)C(c1ccc(Cl)cc1)c1ccc(Cl)cc1 |
| 37 | – | O=C(/C=C(\c1ccc(Cl)cc1)c1ccccn1)NCCc1c[nH]cn1 |
| 260 | – | O=C(NCCC(c1ccc(Cl)cc1)c1ccccn1)OCCc1c[nH]cn1 (stereo not shown) |
| 8.5 | – | O=C(CC(c1ccc(Cl)cc1)c1cccc[n+]1[O-])NCCCCc1c[nH]cn1 (stereo not shown) |
| 50 | – | O=C(CC(c1ccc(Br)cc1)c1ccccn1)NCCCCc1c[nH]cn1 (stereo not shown) |
